Laboratory results as given in PubChem BioAssay AID200 (DTP/NCI, 2004).
“And” between values parts separate entries of the source, which are not always exact repeats. Equal values may be shown once. Toxic doses and inconclusive results are not listed.

Test system: B6C3F1 mice, B16 melanoma ip, median survival T/C
Experiment: NCI In Vivo Anticancer Drug Screen. Data for tumor model B16 Melanoma (intraperitoneal) in B6C3F1 mice
Conditions: endpoint: median survival time, higher = longer survival
How it was run: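 Transplantable tumor in mice; treated vs vehicle control groups; survival or tumor size measured; value = T/C ratio.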

[1] = dose: 2.0 mg/kg/injection, schedule: Q01DX009 (ip), vehicle: saline with Tween-80
[2] = dose: 4.0 mg/kg/injection, schedule: Q01DX009 (ip), vehicle: saline
[3] = dose: 50.0 mg/kg/injection, schedule: Q01DX009 (ip), vehicle: saline with Tween-80

## c1ccc2c(NCCCCCCNc3c4ccccc4nc4ccccc34)c3ccccc3nc2c1
dose: 0.62 mg/kg/injection, schedule: Q01DX009 (ip), vehicle: Klucel (hydroxypropylcellulose) (HPC)
  T/C: 116 % of control
dose: 1.25 mg/kg/injection, schedule: Q01DX009 (ip), vehicle: water
  T/C: 111 % of control and 116 % of control
dose: 1.58 mg/kg/injection, schedule: Q01DX009 (ip), vehicle: Klucel (hydroxypropylcellulose) (HPC)
  T/C: 154 % of control
dose: 2.37 mg/kg/injection, schedule: Q01DX009 (ip), vehicle: Klucel (hydroxypropylcellulose) (HPC)
  T/C: 179 % of control
dose: 2.5 mg/kg/injection, schedule: Q01DX009 (ip), vehicle: Klucel (hydroxypropylcellulose) (HPC)
  T/C: 151 % of control
dose: 2.5 mg/kg/injection, schedule: Q01DX009 (ip), vehicle: water
  T/C: 112 % of control and 122 % of control
dose: 5.0 mg/kg/injection, schedule: Q01DX009 (ip), vehicle: Klucel (hydroxypropylcellulose) (HPC)
  T/C: 189 % of control
dose: 5.0 mg/kg/injection, schedule: Q01DX009 (ip), vehicle: water
  T/C: 123 % of control
dose: 5.33 mg/kg/injection, schedule: Q01DX009 (ip), vehicle: Klucel (hydroxypropylcellulose) (HPC)
  T/C: 213 % of control
dose: 8.0 mg/kg/injection, schedule: Q01DX009 (ip), vehicle: Klucel (hydroxypropylcellulose) (HPC)
  T/C: 199 % of control
dose: 10.0 mg/kg/injection, schedule: Q01DX009 (ip), vehicle: Klucel (hydroxypropylcellulose) (HPC)
  T/C: 200 % of control
dose: 10.0 mg/kg/injection, schedule: Q01DX009 (ip), vehicle: water
  T/C: 153 % of control
dose: 12.0 mg/kg/injection, schedule: Q01DX009 (ip), vehicle: Klucel (hydroxypropylcellulose) (HPC)
  T/C: 190 % of control
dose: 20.0 mg/kg/injection, schedule: Q01DX009 (ip), vehicle: Klucel (hydroxypropylcellulose) (HPC)
  T/C: 206 % of control
dose: 20.0 mg/kg/injection, schedule: Q01DX009 (ip), vehicle: water
  T/C: 162 % of control

## COc1cc(NS(C)(=O)=O)ccc1Nc1c2ccccc2nc2ccccc12
dose: 0.5 mg/kg/injection, schedule: Q01DX009 (ip), vehicle: other
  T/C: 166 % of control and 168 % of control
dose: 1.0 mg/kg/injection, schedule: Q01DX005 (ip), vehicle: other
  T/C: 195 % of control
dose: 1.0 mg/kg/injection, schedule: Q01DX005 (iv), vehicle: other
  T/C: 101 % of control
dose: 1.0 mg/kg/injection, schedule: Q01DX011 (ip), vehicle: saline with Tween-80
  T/C: 175 % of control
dose: 2.0 mg/kg/injection, schedule: Q01DX005 (ip), vehicle: clinical formulation
  T/C: 177 % of control
dose: 2.0 mg/kg/injection, schedule: Q01DX005 (iv), vehicle: clinical formulation
  T/C: 99 % of control
dose: 2.0 mg/kg/injection, schedule: Q01DX005 (oral), vehicle: other
  T/C: 100 % of control
[1]
  T/C: 193 % of control
dose: 2.0 mg/kg/injection, schedule: Q01DX011 (ip), vehicle: saline with Tween-80
  T/C: 209 % of control
dose: 4.0 mg/kg/injection, schedule: Q01DX005 (ip), vehicle: clinical formulation
  T/C: 275 % of control
dose: 4.0 mg/kg/injection, schedule: Q01DX005 (oral), vehicle: other
  T/C: 104 % of control
dose: 4.0 mg/kg/injection, schedule: Q01DX009 (ip), vehicle: saline with Tween-80
  T/C: 253 % of control
[2]
  T/C: 187 % of control and 213 % of control and 222 % of control
dose: 4.0 mg/kg/injection, schedule: Q01DX011 (ip), vehicle: saline with Tween-80
  T/C: 63 % of control
dose: 4.0 mg/kg/injection, schedule: Q01DX011 (oral), vehicle: saline with Tween-80
  T/C: 98 % of control
dose: 8.0 mg/kg/injection, schedule: Q01DX001 (iv), vehicle: clinical formulation
  T/C: 105 % of control
dose: 8.0 mg/kg/injection, schedule: Q01DX005 (oral), vehicle: other
  T/C: 103 % of control
dose: 8.0 mg/kg/injection, schedule: Q01DX009 (ip), vehicle: saline with Tween-80
  T/C: 283 % of control
dose: 8.0 mg/kg/injection, schedule: Q01DX011 (oral), vehicle: saline with Tween-80
  T/C: 92 % of control
dose: 16.0 mg/kg/injection, schedule: Q01DX001 (iv), vehicle: clinical formulation
  T/C: 112 % of control

## CCCCCC[C@H]([C@H](C)O)n1cnc2c(N)ncnc21
dose: 12.5 mg/kg/injection, schedule: Q01DX009 (ip), vehicle: Klucel (hydroxypropylcellulose) (HPC)
  T/C: 122 % of control
dose: 25.0 mg/kg/injection, schedule: Q01DX009 (ip), vehicle: Klucel (hydroxypropylcellulose) (HPC)
  T/C: 88 % of control
dose: 50.0 mg/kg/injection, schedule: Q01DX009 (ip), vehicle: Klucel (hydroxypropylcellulose) (HPC)
  T/C: 111 % of control and 92 % of control
dose: 100.0 mg/kg/injection, schedule: Q01DX009 (ip), vehicle: Klucel (hydroxypropylcellulose) (HPC)
  T/C: 84 % of control and 92 % of control
dose: 200.0 mg/kg/injection, schedule: Q01DX009 (ip), vehicle: Klucel (hydroxypropylcellulose) (HPC)
  T/C: 79 % of control

## COc1oc(C2C/C(=C/C(C)=C/C(C)=C/C(C)=C/c3ccc([N+](=O)[O-])cc3)CO2)c(C)c(=O)c1C (stereo unspecified)
dose: 0.25 mg/kg/injection, schedule: Q01DX009 (ip), vehicle: saline with Tween-80
  T/C: 96 % of control
dose: 0.5 mg/kg/injection, schedule: Q01DX009 (ip), vehicle: saline with Tween-80
  T/C: 98 % of control
dose: 1.0 mg/kg/injection, schedule: Q01DX009 (ip), vehicle: saline with Tween-80
  T/C: 99 % of control
[1]
  T/C: 103 % of control

## Cc1c(N)nc([C@H](CC(N)=O)NC[C@H](N)C(N)=O)nc1C(=O)N[C@H](C(=O)N[C@H](C)[C@@H](O)CC(=O)N[C@H](C(=O)NC(O[C@@H]1O[C@@H](C)[C@@H](N)[C@@H](O)[C@H]1O)C(O)c1nc(-c2nc(C(=O)NCCCCN)cs2)cs1)[C@@H](C)O)[C@@H](O[C@@H]1O[C@@H](CO)[C@@H](O)[C@H](O)[C@@H]1O[C@H]1O[C@H](CO)[C@@H](O)[C@H](OC(N)=O)[C@@H]1O)c1c[nH]cn1 (stereo partly specified)
dose: 0.25 mg/kg/injection, schedule: Q01DX009 (ip), vehicle: saline
  T/C: 104 % of control
dose: 0.4 mg/kg/injection, schedule: Q01DX009 (ip), vehicle: saline
  T/C: 116 % of control and 94 % of control
dose: 0.5 mg/kg/injection, schedule: Q01DX009 (ip), vehicle: saline
  T/C: 107 % of control
dose: 0.8 mg/kg/injection, schedule: Q01DX009 (ip), vehicle: saline
  T/C: 94 % of control
dose: 1.0 mg/kg/injection, schedule: Q01DX009 (ip), vehicle: saline
  T/C: 115 % of control
dose: 1.6 mg/kg/injection, schedule: Q01DX009 (ip), vehicle: saline
  T/C: 98 % of control
dose: 2.0 mg/kg/injection, schedule: Q01DX009 (ip), vehicle: saline
  T/C: 114 % of control
dose: 3.2 mg/kg/injection, schedule: Q01DX009 (ip), vehicle: saline
  T/C: 101 % of control
[2]
  T/C: 121 % of control
dose: 6.4 mg/kg/injection, schedule: Q01DX009 (ip), vehicle: saline
  T/C: 97 % of control

## Nc1nc(-c2ccccc2)c(N=O)c(=O)[nH]1
dose: 14.0 mg/kg/injection, schedule: Q01DX009 (ip), vehicle: saline with Tween-80
  T/C: 96 % of control
dose: 28.0 mg/kg/injection, schedule: Q01DX009 (ip), vehicle: saline with Tween-80
  T/C: 94 % of control
dose: 56.0 mg/kg/injection, schedule: Q01DX009 (ip), vehicle: saline with Tween-80
  T/C: 91 % of control
dose: 112.0 mg/kg/injection, schedule: Q01DX009 (ip), vehicle: saline with Tween-80
  T/C: 101 % of control

## CC(C)=CCC/C(C)=C\C=N\NS(=O)(=O)c1ccc([N+](=O)[O-])cc1
dose: 6.25 mg/kg/injection, schedule: Q01DX009 (ip), vehicle: saline with Tween-80
  T/C: 89 % of control
dose: 12.5 mg/kg/injection, schedule: Q01DX009 (ip), vehicle: saline with Tween-80
  T/C: 93 % of control
dose: 25.0 mg/kg/injection, schedule: Q01DX009 (ip), vehicle: saline with Tween-80
  T/C: 100 % of control
[3]
  T/C: 94 % of control

## c1ccc(Cc2ccccc2)cc1
[3]
  T/C: 90 % of control
dose: 100.0 mg/kg/injection, schedule: Q01DX009 (ip), vehicle: saline with Tween-80
  T/C: 90 % of control
dose: 200.0 mg/kg/injection, schedule: Q01DX009 (ip), vehicle: saline with Tween-80
  T/C: 95 % of control

## Nc1ncnc2c1ncn2C1OC(COP(=O)(O)OC2C(O)C(COP(=O)(O)OC3C(O)C(COP(=O)(O)OP(=O)(O)OP(=O)(O)O)OC3n3cnc4c(N)ncnc43)OC2n2cnc3c(N)ncnc32)C(O)C1O (stereo unspecified)
dose: 0.12 mg/kg/injection, schedule: Q01DX009 (ip), vehicle: distilled water + Tween-80 + alcohol
  T/C: 88 % of control
dose: 0.25 mg/kg/injection, schedule: Q01DX009 (ip), vehicle: distilled water + Tween-80 + alcohol
  T/C: 91 % of control
dose: 0.5 mg/kg/injection, schedule: Q01DX009 (ip), vehicle: distilled water + Tween-80 + alcohol
  T/C: 94 % of control
dose: 1.0 mg/kg/injection, schedule: Q01DX009 (ip), vehicle: distilled water + Tween-80 + alcohol
  T/C: 98 % of control

## NC(CCCNc1cccc(O)c1)C(=O)O (stereo unspecified)
dose: 75.0 mg/kg/injection, schedule: Q01DX009 (ip), vehicle: saline
  T/C: 104 % of control
dose: 100.0 mg/kg/injection, schedule: Q01DX009 (ip), vehicle: saline
  T/C: 87 % of control
